Laboratory results as given in US20230381142A1, “ANTILEISHMANIAL COMPOUNDS, COMPOSITIONS AND USE THEREOF” (TRUSTEES OF BOSTON UNIVERSITY, priority 2022, published 2023).
Where two headings read alike, the source gives them in different places.

Legend:
[1] = system: L. donovani intracellular amastigotes in B10R cells; experiment: UCSD L. donovani infection assay (Assay Conditions D); assay type: cell-based; conditions: B10R cells; for L. donovani amastigotes EC75 (B10R cells): footnote d
Description: (§1) Assay Conditions D: B10R cells (CVCL_0155) were seeded at 300 cells/well, and L. donovani WT promastigotes in stationary phase (7th day after passage) were added at 6,000 parasites/well (ratio of 20 parasites/cell). Both cells and parasites were seeded in DMEM High-Glucose medium (Gibco, cat. no. 11995065) containing 5% Fetal Bovine Serum (Sigma-Aldrich, cat. no. F2442) and 1% Penicillin-Streptomycin (Gibco, cat. no. 15140122). Cells and parasites were incubated in the presence of the compounds for 72 h at 37° C. and 5% C02. Plates were then fixed with 4% formaldehyde solution for at least 1 h, then washed with 1×PBS and stained with 5 μg/mL DAPI. Plates were read using an ImageXpress microscope (Molecular Devices) and analyzed by MetaXpress software (Molecular Devices) using a custom module optimized for this assay. […] Compounds were tested in a 10-point 2-fold serial dilution in 3 technical replicates, and 2 biological replicates. After 72 h, plates were fixed and stained with DAPI as described above. Images were acquired on an ImageXpress microscope, and analyzed using the MetaXpress custom module.
as §1, with “Compounds were obtained as 0.2 μmoles of dried film for primary single point screening. Each compound was diluted in DMSO to 10 μM final testing concentration. These compounds were tested in 2 biological replicates. The compounds were pre-spotted onto 384-well assay plates in single concentration.” for “Assay Conditions D:”, “CO2.” for “C02.”, “module. The DRCs were plotted, half-effective concentration (EC50) and half-cytotoxic concentration (CC50) were calculated using GraphPad Prism Software, version 6.05 (GraphPad Software, San Diego, CA).” for “module.”

[2] = system: L. donovani intracellular amastigotes infecting THP-1 macrophages; experiment: GSK intramacrophage L. donovani assay (LD AMMAC, inMac; Assay Conditions C); assay type: cell-based; conditions: Leishmania donovani; THP-1 cells; values marked c; read-out: L. donovani amastigotes EC50 (THP-1 cells)
Description: Assay Conditions C: The intramacrophage Leishmania donovani activity assay was performed as described in Antimicrob Agents Chemother (2013) 57(7):2913-22.
(§2) The intramacrophage Leishmania donovani activity assay (LD AMMAC) at GlaxoSmithKline was performed as described.
(§3) Given the literature precedents described above and the apparent narrow tolerance for R^3 substitutions observed in the primary screen compounds, a thorough and methodical assessment was undertaken of tolerated groups at the three points of diversity (R^1/R^2/R^3) for the core. At this stage of the project, all analogues were assessed using a battery of assays performed in-house at GlaxoSmithKline. For antileishmanial activity, GSK's inMac assay was utilized. This assay provides two readouts of compound potency: average number of intracellular amastigotes per infected cell (AMMAC) EC50, percentage of infected cells per well (INFCELL) EC50, as well as a toxicity output derived from the number of host cells (MAC EC50). In addition, compounds were assessed for toxicity against HepG2 cells (HEPG2 EC50). Here, AMMAC EC50 values were focused on for relative potency assessments. […] It should be noted that for all compounds assessed in this project, the measured toxicity against THP-1 macrophages either equaled or exceeded that of HepG2 hepatocytes, therefore the MAC SI is used here as the more conservative estimate of therapeutic index.

[3] = GSK inMac assay, host cell toxicity readout (LD MAC); assay type: cell-based, human; conditions: human
Description: as §2, §3

[4] = footnote c, read-out: THP-1 Host Cell CC50

| EC50 [2] | Structure (SMILES) | L. donovani amastigotes EC75 (μM, B10R cells) [1] | CC50 [3, 4] | further results |
| --- | --- | --- | --- | --- |
| – | CCn1cc(N2C(=O)c3[nH]nc(CC(C)C)c3C2c2ccc(F)cc2Cl)cn1 (centres unmarked) [BUCMD00665] | >10 µM | – | – |
| – | CCn1cc(N2C(=O)c3[nH]nc(CC(C)C)c3C2c2ccc(Cl)cc2F)cn1 (centres unmarked) [BUCMD00666] | >10 µM | – | – |
| – | CCn1cc(N2C(=O)c3[nH]nc(CC(C)C)c3C2c2ccccc2C)cn1 (centres unmarked) [BUCMD00667] | >10 µM | – | – |
| – | CCn1cc(N2C(=O)c3[nH]nc(CC(C)C)c3C2c2ccccc2Cl)cn1 (centres unmarked) [BUCMD00668] | 5.8 µM | – | – |
| – | CCn1cc(N2C(=O)c3[nH]nc(CC(C)C)c3C2c2ccc(F)cc2Br)cn1 (centres unmarked) [BUCMD00669] | – | – | L. donovani amastigotes EC75 (B10R cells) [1]: 0.7 µM |
| – | CCn1cc(N2C(=O)c3[nH]nc(CC(C)C)c3C2c2ccc(F)cc2F)cn1 (centres unmarked) [BUCMD00670] | >10 µM | – | – |
| – | CCn1cc(N2C(=O)c3[nH]nc(CC(C)C)c3C2c2sccc2C)cn1 (centres unmarked) [BUCMD00672] | 6.9 µM | – | – |
| – | CC(C)Cc1n[nH]c2c1C(c1ccc(F)cc1Cl)N(c1cnn(C(C)C)c1)C2=O (centres unmarked) [BUCMD00674] | 10.0 µM | – | – |
| – | CC(C)Cc1n[nH]c2c1C(c1ccc(Cl)cc1F)N(c1cnn(C(C)C)c1)C2=O (centres unmarked) [BUCMD00675] | >10 µM | – | – |
| – | CC(C)Cc1n[nH]c2c1C(c1ccccc1Cl)N(c1cnn(C(C)C)c1)C2=O (centres unmarked) [BUCMD00676] | >10 µM | – | – |
| – | Cc1ccccc1C1c2c(CC(C)C)n[nH]c2C(=O)N1c1cnn(C(C)C)c1 (centres unmarked) [BUCMD00677] | >10 µM | – | – |
| – | CC(C)Cc1n[nH]c2c1C(c1ccc(F)cc1F)N(c1cnn(C(C)C)c1)C2=O (centres unmarked) [BUCMD00678] | >10 µM | – | – |
| – | CC(C)Cc1n[nH]c2c1C(c1ccccc1C(F)(F)F)N(c1cnn(C(C)C)c1)C2=O (centres unmarked) [BUCMD00679] | 10.4 µM | – | – |
| – | Cc1ccsc1C1c2c(CC(C)C)n[nH]c2C(=O)N1c1cnn(C(C)C)c1 (centres unmarked) [BUCMD00680] | >10 µM | – | – |
| – | Cc1cc(F)ccc1C1c2c(CC(C)C)n[nH]c2C(=O)N1c1cncc(F)c1 (centres unmarked) [BUCMD00693] | >10 µM | – | – |
| – | CC(C)Cc1n[nH]c2c1C(c1ccc(Cl)cc1F)N(c1cncc(F)c1)C2=O (centres unmarked) [BUCMD00695] | – | – | L. donovani amastigotes EC75 (B10R cells) [1]: 0.5 µM |
| – | CC(C)Cc1n[nH]c2c1C(c1ccccc1Cl)N(c1cncc(F)c1)C2=O (centres unmarked) [BUCMD00696] | >10 µM | – | – |
| – | Cc1ccccc1C1c2c(CC(C)C)n[nH]c2C(=O)N1c1cncc(F)c1 (centres unmarked) [BUCMD00697] | 2.6 µM | – | – |
| – | CC(C)Cc1n[nH]c2c1C(c1ccc(F)cc1F)N(c1cncc(F)c1)C2=O (centres unmarked) [BUCMD00698] | 2.3 µM | – | – |
| – | Cc1ccsc1C1c2c(CC(C)C)n[nH]c2C(=O)N1c1cncc(F)c1 (centres unmarked) [BUCMD00702] | 7.3 µM | – | – |
| – | CC(C)Cc1n[nH]c2c1C(c1ccccc1F)N(c1ccc(C(=O)N3CCCC3)cc1)C2=O (centres unmarked) [BUCMD00715] | >10 µM | – | – |
| – | CC(C)Cc1n[nH]c2c1C(c1ccc(F)c(F)c1)N(c1ccc(C(=O)N3CCCC3)cc1)C2=O (centres unmarked) [BUCMD00716] | >10 µM | – | – |
| – | CC(C)Cc1n[nH]c2c1C(c1ccccc1Cl)N(c1ccc(N3CCN(C)CC3)nc1)C2=O (centres unmarked) [BUCMD00720] | 5.1 µM | – | – |
| – | Cc1ccccc1C1c2c(CC(C)C)n[nH]c2C(=O)N1c1ccc(N2CCN(C)CC2)nc1 (centres unmarked) [BUCMD00721] | 5.0 µM | – | – |
| – | Cc1cc(F)ccc1C1c2c(CC(C)C)n[nH]c2C(=O)N1c1ccc(C(=O)N2CCCC2)cc1 (centres unmarked) [BUCMD00726] | >10 µM | – | – |

| EC50 [2] | Structure (SMILES) | L. donovani amastigotes EC75 (μM, B10R cells) [1] | CC50 [3, 4] | further results |
| --- | --- | --- | --- | --- |
| – | CC(C)Cc1n[nH]c2c1C(c1ccccc1Cl)N(c1ccc(C(=O)N3CCCC3)cc1)C2=O (centres unmarked) [BUCMD00727] | >10 µM | – | – |
| – | COc1ncc(N2C(=O)c3[nH]nc(CC(C)C)c3C2c2ccc(Cl)cc2F)cc1F (centres unmarked) [BUCMD00731] | >10 µM | – | – |
| – | COc1ncc(N2C(=O)c3[nH]nc(CC(C)C)c3C2c2ccccc2Cl)cc1F (centres unmarked) [BUCMD00732] | 1.9 µM | – | – |
| – | COc1ncc(N2C(=O)c3[nH]nc(CC(C)C)c3C2c2ccccc2C)cc1F (centres unmarked) [BUCMD00733] | 1.0 µM | – | – |
| – | COc1ncc(N2C(=O)c3[nH]nc(CC(C)C)c3C2c2ccc(F)cc2F)cc1F (centres unmarked) [BUCMD00734] | 1.5 µM | – | – |
| – | C#CCCCCOc1ccc(N2C(=O)c3[nH]nc(CC(C)C)c3C2c2ccc(F)cc2)cn1 (centres unmarked) [BUCMD00739] | >10 µM | – | – |
| 1 µM | COc1ccc(N2C(=O)c3[nH]nc(CC(C)C)c3C2c2c(Cl)cccc2Cl)cc1 (centres unmarked) [BUCMD00797] | – | 2.5 µM | – |
| 31.6 µM | CC(C)Cc1n[nH]c2c1C(c1ccccc1Br)N(CCN1CCCC1)C2=O (centres unmarked) [BUCMD00798] | – | > 50 µM | – |
| 20 µM | CC(C)Cc1n[nH]c2c1C(c1ccccc1Cl)N(CCN1CCCC1)C2=O (centres unmarked) [BUCMD00799] | – | > 50 µM | – |
| 0.5 µM | COc1ccc(N2C(=O)c3[nH]nc(CC(C)C)c3C2c2ccc(F)cc2C)cc1 (centres unmarked) [BUCMD00800] | – | 25.1 µM | – |
| > 50 µM | COc1ccc(N2C(=O)c3[nH]nc(CC(C)C)c3C2c2ccnnc2)cc1 (centres unmarked) [BUCMD00801] | – | > 50 µM | – |
| 5 µM | COc1ccc(N2C(=O)c3[nH]nc(CC(C)C)c3C2c2ccc(F)c(C(F)(F)F)c2)cc1 (centres unmarked) [BUCMD00802] | – | 25.1 µM | – |
| 5 µM | COc1cc(N2C(=O)c3[nH]nc(CC(C)C)c3C2c2cccc(C(F)(F)F)c2)cc(OC)c1OC (centres unmarked) [BUCMD00803] | – | 12.6 µM | – |
| 7.9 µM | CC(C)Cc1n[nH]c2c1C(c1cccc(C(F)(F)F)c1)N(c1ccc3ncnn3c1)C2=O (centres unmarked) [BUCMD00804] | – | ≥ 50.1 µM | – |
| 25.1 µM | CC(C)Cc1n[nH]c2c1C(c1ccc(F)cc1)N(c1cccc(C#N)c1)C2=O (centres unmarked) [BUCMD00806] | – | > 50 µM | – |
| 12.6 µM | CC(C)Cc1n[nH]c2c1C(c1ccc(F)cc1)N(c1ccc(C#N)cc1)C2=O (centres unmarked) [BUCMD00807] | – | 25.1 µM | – |
| 10 µM | COc1ccc(N2C(=O)c3[nH]nc(CC(C)C)c3C2c2ccc(F)cc2)cn1 (centres unmarked) [BUCMD00808] | – | > 50 µM | – |
| 4 µM | CCn1nc(CC(C)C)c2c1C(=O)N(c1ccc(OC)cc1)C2c1ccc(F)cc1 (centres unmarked) [BUCMD00809] | – | 39.8 µM | – |
| 20 µM | CCn1nc2c(c1CC(C)C)C(c1ccc(F)cc1)N(c1ccc(OC)cc1)C2=O (centres unmarked) [BUCMD00810] | – | > 50 µM | – |
| 10 µM | COc1ccc(N2C(=O)c3[nH]nc(-c4ccc(OCc5ccccc5)cc4)c3C2c2ccc(F)cc2)cc1 (centres unmarked) [BUCMD00811] | – | 15.8 µM | – |
| 3.2 µM | COc1ccc(N2C(=O)c3[nH]nc(CC4CCCCC4)c3C2c2ccc(F)cc2)cc1 (centres unmarked) [BUCMD00812] | – | 20 µM | – |
| 12.6 µM | COCn1nc(CC(C)C)c2c1C(=O)N(c1ccc(OC)cc1)C2c1ccc(F)cc1 (centres unmarked) [BUCMD00813] | – | 31.6 µM | – |
| 12.6 µM | COCn1nc2c(c1CC(C)C)C(c1ccc(F)cc1)N(c1ccc(OC)cc1)C2=O (centres unmarked) [BUCMD00814] | – | > 50 µM | – |
| 2.5 µM | CC(C)Cc1n[nH]c2c1C(c1ccc(F)cc1)N(c1ccc(-n3ccnc3)cc1)C2=O (centres unmarked) [BUCMD00815] | – | > 50 µM | – |
| – | COc1ccc(N2C(=O)c3c(c(CC(C)C)nn3C)C2c2ccc(Br)cc2)cc1 (centres unmarked) [CMLD006598] | – | – | CC50 ([3]; host THP-1 cells): ≥ 50.1 µM |
